Patent US20240327356A1, “PYRIMIDINE BASED RAS MODULATORS AND USES THEREOF” (QUANTA THERAPEUTICS, INC., priority 2021, published 2024)

Tests used:
[1] = molecular target: KRAS^G12D-FMe.RAF1^RBDCRD complex (Homo sapiens, UniProt P01116, G12D); experiment: SHG assay: binding to bilayer-tethered KRAS G12D/RAF1 complex; conditions: GppNHp-loaded complex on PS bilayer; compound 0.027-40 μM, monitored over 60 min
Description: Compounds suspected to carry intrinsic SHG activity were tested in the presence of an unlabeled KRAS^G12D-FMe.RAF1^RBDCRD complex to monitor binding. PS bilayer was prepared from PS-enriched small unilamellar vesicles (SUVs) purchased from Biodesy, Inc. The concentrated SUVs were diluted in TBS buffer containing 5 mM CaCl2 and incubated on a glass-bottom 384-well Biodesy Delta™ assay plate to allow bilayer formation. Equimolar amounts of GppNHp-loaded KRAS^G12D-FMe and RAF1^RBDCRD were mixed and incubated together on PS bilayer overnight at 4° C. The following day, untethered protein was removed by washing with assay buffer (20 mM Hepes, pH 7.4, […], 1 mM TCEP, 5 μM GppNHp). The SHG signal produced by bilayer-tethered complex was ready using the Biodesy Delta™ platform where each well was pulsed with an 800 nm laser and the resulting second harmonic signal intensity at 400 nm was collected. Compounds were diluted into the same assay buffer and applied to the complex at a final concentration range spanning 0.027 μM-40 μM and the SHG intensity of each well was monitored at 5 minute intervals over a 60 minute time period.

[2] = system: Phospho-ERK (Thr202/Tyr204) in MiaPaCa-2 cells; experiment: pERK inhibition in MiaPaca-2 cell line (HTRF); format: cell-based; conditions: Homo sapiens, MIA PaCa-2, 1 hour incubation with compound
Description: MiaPaCa-2 cells (ATCC CRL-1420) were cultured in high glucose DMEM (Gibco 11965092) containing 10% fetal bovine serum (Gibco 1993708) and 1× Penicillin/Streptomycin, at 37° C. in a humid atmosphere of 5% CO2 in the air. Cells were plated in tissue-culture treated 96-well plates at a density of 10,000 cells/well and allowed to attach for 16 hours. The medium was then removed, and diluted compounds were added in a final concentration of 0.5% DMSO. After 1 hour of incubation, cells were lysed by the lysis buffer supplied with the Phospho-ERK (Thr202/Tyr204) cellular HTRF kit (Cisbio 64ERKPEH) and transferred to a 384-well low-volume white plate (PerkinElmer 6008280). The cell lysates were treated with the detection reagents supplied with the HTRF kit for 4 hours at ambient temperature in darkness. Two fluorescence intensities at the wavelengths (665 and 620 nm) were measured by the Envision plate reader (Perkin Elmer), and the data were processed and fitted to a 4-parameter logistic model for IC50 calculation (GraphPad Prism 9).

Compound	EC50 [1] [µM]	IC50 [2] [µM]
NCC1CCN(c2nc(-c3ccc(C(F)(F)F)cc3F)ncc2C2CCNC2)C1 (centres unmarked) [Compound 17, [1-[2-[2-fluoro-4-(trifluoromethyl)phenyl]-5-pyrrolidin-3-yl-pyrimidin-4-yl]pyrrolidin-3-yl]methanamine]	1 to 10	1 to 10
NCCOc1nc(-c2ccc(Cl)c(C(F)(F)F)c2)ncc1C1=CCNC1 [Compound 34, 2-[2-[4-chloro-3-(trifluoromethyl)phenyl]-5-(2,5-dihydro-1H-pyrrol-3-yl)pyrimidin-4-yl]oxyethanamine]	0.1 to 1	1 to 10
N#CC1(C(=O)NCc2cnc(-c3ccc(Cl)c(C(F)(F)F)c3)nc2N2CCC(F)(CN)C2)CC1 (centres unmarked) [Compound 47]	1 to 10	1 to 10
NCC1CCN(c2nc(-c3ccc(Cl)c(C(F)(F)F)c3)ncc2OC2CCOC2)C1 (centres unmarked) [Compound 12]	1 to 10	1 to 10
N#CC1(C(=O)NCc2cnc(-c3ccc(Cl)c(C(F)(F)F)c3)nc2N2CCC[C@@H]2CN)CC1 [Compound 66]	1 to 10	1 to 10
NCC1CCN(c2nc(-c3ccc(Cl)c(C(F)(F)F)c3)ncc2CNC(=O)c2ccccc2)C1 (centres unmarked) [Compound 9]	1 to 10	10 to 50
N#CC1(C(=O)NCc2cnc(-c3ccc(Cl)c(C(F)(F)F)c3)nc2OCCCN)CC1 [Compound 74]	1 to 10	1 to 10
NCC1CCN(c2nc(-c3ccc(C(F)(F)F)c(Cl)c3)ncc2N2CCNC2=O)C1 (centres unmarked) [Compound 109, 1-[4-[3-(aminomethyl)pyrrolidin-1-yl]-2-[3-chloro-4-(trifluoromethyl)phenyl]pyrimidin-5-yl]imidazolidin-2-one]	1 to 10	1 to 10
Cc1ccc(-c2ncc(CNC(=O)C3(F)CC3)c(OC3CCN(C)C3)n2)cc1Cl (centres unmarked) [Compound 89]	10 to 50	1 to 10
Cc1ccc(-c2ncc(NC(=O)C3(C#N)CC3)c(N3CCC(CN)C3)n2)cc1Cl (centres unmarked) [Compound 110]	10 to 50	1 to 10
NC[C@@H]1CCCN1c1nc(-c2ccc(Cl)c(C(F)(F)F)c2)ncc1C1=CCNC1 [Compound 31]	< 0.1	1 to 10
NCC1CCN(c2nc(-c3ccc(Cl)c(C(F)(F)F)c3)ncc2CNCCO)C1 (centres unmarked) [Compound 49, 2-[[4-[3-(aminomethyl)pyrrolidin-1-yl]-2-[4-chloro-3-(trifluoromethyl)phenyl]pyrimidin-5-yl]methylamino]ethanol]	1 to 10	1 to 10
N#CC1(C(=O)NCc2cnc(-c3ccc(Cl)c(C(F)(F)F)c3)nc2C2=CCC(N)CC2)CC1 (centres unmarked) [Compound 58, N-[[4-(4-aminocyclohexen-1-yl)-2-[4-chloro-3-(trifluoromethyl)phenyl]pyrimidin-5-yl]methyl]-1-cyano-cyclopropanecarboxamide]	1 to 10	1 to 10
NC[C@@H]1CCN(c2nc(-c3ccc(Cl)c(C(F)(F)F)c3)ncc2C2CC2)C1 [Compound 14]	1 to 10	10 to 50
N#CC1(C(=O)NCc2cnc(-c3ccc(C(F)(F)F)c(Cl)c3)nc2N2CCC(CN)C2)CC1 (centres unmarked) [Compound 75]	1 to 10	1 to 10
N#CC1(C(=O)N2CC=C(c3cnc(-c4ccc(Cl)c(C(F)(F)F)c4)nc3OCCN)C2)CC1 [Compound 36]	1 to 10	1 to 10
N#CC1(C(=O)NCc2cnc(-c3ccc(Cl)c(C(F)(F)F)c3)nc2N2CCNCC2)CC1 [Compound 54]	1 to 10	1 to 10
N[C@H]1CN(c2nc(-c3ccc(Cl)c(C(F)(F)F)c3)ncc2C2=CCNC2)C[C@@H]1O [Compound 61]	1 to 10	1 to 10
Cc1ccc(-c2ncc(OCC(=O)NC3CC3)c(N3CCC(CN)C3)n2)cc1Cl (centres unmarked) [Compound 126]	1 to 10	1 to 10
N#Cc1cc(-c2ncc(CNc3ccccc3)c(N3CCC(CN)C3)n2)ccc1C(F)(F)F (centres unmarked) [Compound 45, 5-[4-[3-(aminomethyl)pyrrolidin-1-yl]-5-(anilinomethyl)pyrimidin-2-yl]-2-(trifluoromethyl)benzonitrile]	1 to 10	1 to 10

Compound	EC50 [1] [µM]	IC50 [2] [µM]
N[C@@H]1CN(c2nc(-c3ccc(Cl)c(C(F)(F)F)c3)ncc2C2=CCNC2)C[C@H]1O [Compound 40]	0.1 to 1	1 to 10
NC[C@@H]1CCN(c2nc(-c3ccc(Cl)c(C(F)(F)F)c3)ncc2C2=CCNC2)C1 [Compound 2, [(3S)-1-[2-[4-chloro-3-(trifluoromethyl)phenyl]-5-(2,5-dihydro-1H-pyrrol-3-yl)pyrimidin-4-yl]pyrrolidin-3-yl]methanamine]	0.1 to 1	1 to 10
Cc1ccc(-c2ncc(CN3CCCC3=O)c(N3CCC(CN)C3)n2)cc1Cl (centres unmarked) [Compound 122]	1 to 10	1 to 10
Cc1ccc(-c2ncc(CNC(=O)C3(C#N)CC3)c(C3=CCC(N)CC3)n2)cc1Cl (centres unmarked) [Compound 77]	1 to 10	1 to 10
Cc1ccc(-c2ncc(CNC(=O)C3(F)CNC3)c(N3CCC(CN)C3)n2)cc1Cl (centres unmarked) [Compound 102]	1 to 10	1 to 10
Cc1ccc(-c2ncc(CNC(=O)C3(C)COC3)c(N3CCC(CN)C3)n2)cc1Cl (centres unmarked) [Compound 80]	10 to 50	1 to 10
N#Cc1cc(-c2ncc(CNC(=O)C3(F)CC3)c(N3CCC(CN)C3)n2)ccc1Cl (centres unmarked) [Compound 35]	10 to 50	1 to 10
N#CC1(C(=O)NCc2cnc(-c3ccc(Cl)c(C(F)(F)F)c3)nc2OC2CNC2)CC1 [Compound 39]	1 to 10	1 to 10
N#CC1(C(=O)NCc2cnc(-c3ccc(Cl)c(C(F)(F)F)c3)nc2OC2CCNC2)CC1 (centres unmarked) [Compound 38]	10 to 50	1 to 10
N#CC1(C(=O)NCc2cnc(-c3ccc(Cl)c(C(F)(F)F)c3)nc2N2CCC(N)CC2)CC1 [Compound 48]	1 to 10	1 to 10
CN1CCN(c2nc(-c3ccc(Cl)c(C(F)(F)F)c3)ncc2CNC(=O)C2(C#N)CC2)CC1 [Compound 71]	1 to 10	1 to 10
Cc1ccc(-c2ncc(CNS(=O)(=O)c3ccccc3)c(N3CCC(CN)C3)n2)cc1Cl (centres unmarked) [Compound 94]	1 to 10	1 to 10
N[C@@H]1CN(c2nc(-c3ccc(Cl)cc3NC(=O)C3CC3)ncc2C2=CCNC2)C[C@H]1O [Compound 43]	10 to 50	10 to 50
N#CC1(C(=O)NCc2cnc(-c3ccc(Cl)c(C(F)(F)F)c3)nc2N2CCC[C@H]2CN)CC1 [Compound 55]	10 to 50	1 to 10
N#Cc1cc(-c2ncc(C3=CCN(C(=O)C4(C#N)CC4)C3)c(N3CCC(CN)C3)n2)ccc1Cl (centres unmarked) [Compound 30]	10 to 50	1 to 10
NCC1CCN(c2nc(-c3ccc(Cl)c(C(F)(F)F)c3)ncc2[N+](=O)[O-])C1 (centres unmarked) [Compound 56]	10 to 50	10 to 50
Cc1ccc(-c2ncc(CN(C)C(=O)C3(F)CC3)c(N3CCNCC3)n2)cc1Cl [Compound 98]	1 to 10	1 to 10
NCC1CCN(c2nc(-c3ccc(Cl)c(Cl)c3)ncc2C2=CCNC2)C1 (centres unmarked) [Compound 10]	1 to 10	1 to 10
Cc1ccc(-c2ncc(CNC(=O)C3(N)CC3)c(N3CCC(CN)C3)n2)cc1Cl (centres unmarked) [Compound 81]	10 to 50	1 to 10
NCC1CCN(c2nc(-c3ccc(C(F)(F)F)cc3F)ncc2CNC(=O)C2(CN)CC2)C1 (centres unmarked) [Compound 25]	1 to 10	10 to 50
